In this assay the target is MCH receptor (Homo sapiens, UniProt Q99705). In words: High throughput functional screening FLIPR/FDSS6000 (intracellular Ca2+ evoked by MCH). The class given is cell-based. The settings on record: FLIPR/FDSS, antagonist activity vs 50 nM MCH, class by percent of control at 10^−7 M or IC50, read-out: class. A digest of the protocol:
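For antagonist testing, compound-treated cells (30 min, 37 °C) were stimulated with 50 nM MCH and intracellular Ca2+ followed by Fluo4 fluorescence on FLIPR/FDSS6000. Receptor was a constitutively active, non-endogenous MCH receptor; dye loading 4 μM Fluo4-AM, 1 h, 37 °C.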

Counter-ions that a name gives are not always drawn. Like-named read-outs stand apart in the source and are kept apart here. Bounds are passed on as bounds.

Consider `COc1cc(N[C@H]2CC[C@@H](NC(=O)c3ccc(F)c(F)c3)CC2)nc2ccccc12` [Example 3116, 3,4-Difluoro-N-[cis-4-(4-methoxy-quinolin-2-ylamino)-cyclohexyl]-benzamide hydrochloride], for which the IC50 (table after the classification) was more than 0.2 µM.
In the case of `Cc1cnc(N[C@H]2CC[C@@H](NC(=O)[C@@H]3C[C@H]3c3ccc(Cl)c(Cl)c3)CC2)nc1N(C)C` (relative stereo) [Example 3319, trans-2-(3,4-dichlorophenyl)-N-(cis-4-{[4-(dimethylamino)-5-methylpyrimidin-2-yl]amino}cyclohexyl)-cyclopropanecarboxamide], the IC50 was less than 0.05 µM.
The same measure, in the same setting: next, `Cc1cnc(N[C@H]2CC[C@@H](NC(=O)c3cccnc3S(=O)(=O)c3ccccc3Cl)CC2)nc1N(C)C` [Example 3284, 2-[(2-chlorophenyl)sulfonyl]-N-(cis-4-{[4-(dimethylamino)-5-methylpyrimidin-2-yl]amino}cyclohexyl)nicotinamide]: 0.05 to 0.2 µM; `Cc1cnc(N[C@H]2CC[C@@H](C(=O)N[C@H](C)c3ccc(Br)cc3)CC2)nc1N(C)C` [Example 3297, cis-N-[(1R)-1-(4-bromophenyl)ethyl]-4-{[4-(dimethylamino)-5-methylpyrimidin-2-yl]amino}cyclohexanecarboxamide]: 0.05 to 0.2 µM.
For `CN(C)c1nc(N[C@H]2CC[C@@H](NC(=O)c3csc([N+](=O)[O-])c3)CC2)nc2c1CCCC2` [Example 3193, 5-Nitro-thiophene-3-carboxylic acid [cis-4-(4-dimethylamino-5,6,7,8-tetrahydro-quinazolin-2-ylamino)-cyclohexyl]-amide hydrochloride], where the note is “table after the classification”, the IC50 was less than 0.05 µM.
Still for that read-out and setting: to `CN(C)c1ccnc(N[C@H]2CC[C@@H](NC(=O)c3cc(F)c(F)c(F)c3)CC2)n1` [Example 3216, N-[cis-4-(4-Dimethylamino-pyrimidin-2-ylamino)-cyclohexyl]-3,4,5-trifluoro-benzamide hydrochloride] belongs less than 0.05 µM.
In the case of `Cc1cc(N[C@H]2CC[C@@H](C(=O)N[C@@H](C)c3ccc(Br)cc3)CC2)nc2ccccc12` [Example 3304, cis-N-[(1S)-1-(4-bromophenyl)ethyl]-4-[(4-methylquinolin-2-yl)amino]cyclohexanecarboxamide], the IC50 was more than 0.2 µM.
As for `Cc1cc(N(C)C)nc(N[C@H]2CC[C@@H](NC(=O)c3ccc(F)c(F)c3)CC2)n1` [Example 3127, N-[cis-4-(4-dimethylamino-C-methyl-pyrimidin-2-ylamino)-cyclohexyl]-3,4-difluoro-benzamide hydrochloride], the IC50 (table after the classification) was less than 0.05 µM.
On the same count and under the same terms, to `Cc1ccc(Oc2ncccc2C(=O)N[C@H]2CC[C@@H](Nc3cc(C)c4ccccc4n3)CC2)cc1` [Example 3092, N-[cis-4-(4-Methyl-quinolin-2-ylamino)-cyclohexyl]-2-p-tolyloxy-nicotinamide hydrochloride] belongs less than 0.05 µM; to `Cc1cnc(N[C@H]2CC[C@@H](NC(=O)c3cccnc3Oc3ccccc3Br)CC2)nc1N(C)C` [Example 3124, 2-(2-Bromo-phenoxy)-N-[cis-4-(4-dimethylamino-5-methyl-pyrimidin-2-ylamino)-cyclohexyl]-nicotinamide hydrochloride], less than 0.05 µM; to `COc1cccc(C(=O)N[C@H]2CC[C@@H](Nc3ccc4ccccc4n3)CC2)c1` [Example 3240, 3-Methoxy-N-[cis-4-(quinolin-2-ylamino)-cyclohexyl]-benzamide methanesulfonic acid], less than 0.05 µM.
In the case of `Cc1cnc(N[C@H]2CC[C@@H](NC(=O)N(C)c3ccccc3OC(F)(F)F)CC2)nc1N(C)C` [Example 3352, N′-(cis-4-{[4-(dimethylamino)-5-methylpyrimidin-2-yl]amino}cyclohexyl)-N-methyl-N-[2-(trifluoromethoxy)-phenyl]urea], the IC50 is less than 0.05 µM.
On to `Cc1cc(N(C)C)nc(N[C@H]2CC[C@@H](NC(=O)c3ccc(Cl)c(F)c3)CC2)n1` [Example 3383, 4-Chloro-N-[cis-4-(4-dimethylamino6-methyl-pyrimidin-2-ylamino)-cyclohexyl]3-fluoro-benzamide hydrochloride], for which the IC50 (table after the classification) was less than 0.05 µM.
On to `Cc1cc(C(=O)N[C@H]2CC[C@@H](Nc3ccc4ccccc4n3)CC2)ccc1F` [Example 3046, 4-Fluoro-3-methyl-N-[cis-4-(quinolin-2-ylamino)-cyclohexyl]-benzamide hydrochloride], for which the IC50 (table after the classification) was less than 0.05 µM.
The same measure, in the same setting: next, `CN(C)c1nc(N[C@H]2CC[C@@H](NC(=O)c3ccc(F)c(F)c3)CC2)nc2c1CCCC2` [Example 3192, N-[cis-4-(4-dimethylamino-5,6,7,8-tetrahydro-quinazolin-2-ylamino)-cyclohexyl]-3,4-difluoro-benzamide hydrochloride]: less than 0.05 µM.
On to `Cc1cc(N[C@H]2CC[C@@H](C(=O)N[C@H](C)c3ccccc3F)CC2)nc2ccccc12` [Example 3311, cis-N-[(1R)-1-(2-fluorophenyl)ethyl]-4-[(4-methylquinolin-2-yl)amino]cyclohexanecarboxamide], for which the IC50 was more than 0.2 µM.
Still for that read-out and setting: to `Cc1cnc(NC2CCC(C(=O)N[C@@H](C)c3ccccc3C(F)(F)F)CC2)nc1N(C)C` (stereo partly drawn) [Example 3300, 4-{[4-(dimethylamino)-5-methylpyrimidin-2-yl]amino}-N-{(1S)-1-[2-(trifluoromethyl)phenyl]ethyl}cyclohexanecarboxamide] belongs less than 0.05 µM.
On to `Cc1cccc(Oc2ncccc2C(=O)N[C@H]2CC[C@@H](Nc3ccc4ccccc4n3)CC2)c1` [Example 3061, N-[cis-4-(Quinolin-2-ylamino)-cyclohexyl]-2-m-tolyloxy-nicotinamide hydrochloride], for which, for the setting “table after the classification”, the IC50 is less than 0.05 µM.
With `Cc1cc(N[C@H]2CC[C@@H](NC(=O)C(c3ccccc3)c3ccccc3)CC2)nc2ccccc12` [Example 3089, N-[cis-4-(4-Methyl-quinolin-2-ylamino)-cyclohexyl]-2,2-diphenyl-acetamide hydrochloride], where the note is “table after the classification”, the IC50 is less than 0.05 µM.
Still for that read-out and setting: next, `COc1ccnc(N[C@H]2CC[C@@H](NC(=O)c3ccc(F)c(F)c3)CC2)n1` [Example 3131, 3,4-Difluoro-N-[cis-4-(4-methoxy-pyrimidin-2-ylamino)-cyclohexyl]-benzamide hydrochloride]: more than 0.2 µM.
Consider `Cc1cnc(N[C@H]2CC[C@@H](NC(=O)N(C)C(C)(C)c3ccc(Cl)cc3)CC2)nc1N(C)C` [Example 3269, N-[1-(4-chlorophenyl)-1-methylethyl]-N′-(cis-4-{[4-(dimethylamino)-5-methylpyrimidin-2-yl]amino}cyclohexyl)-N-methylurea], for which the IC50 was less than 0.05 µM.
Take `O=C(N[C@H]1CC[C@@H](Nc2ccc3ccccc3n2)CC1)c1cc(F)cc(F)c1` [Example 3152, 3,5-Difluoro-N-[cis-4-(quinolin-2-ylamino)-cyclohexyl]-benzamide hydrochloride]: the IC50 (table after the classification) was less than 0.05 µM.
Still for that read-out and setting: next, `Cc1cnc(N[C@H]2CC[C@@H](NC(=O)c3cc(F)cc(F)c3)CC2)nc1N(C)C` [Example 3390, N-[cis-4-(4-Dimethylamino-5-methyl-pyrimidin-2-ylamino)-cyclohexyl]-3,5-difluoro-benzamide hydrochloride]: less than 0.05 µM.
Same read-out and setting: to `Cc1cc(N(C)C)nc(N[C@H]2CC[C@@H](NC(=O)c3ccc(F)c(Cl)c3)CC2)n1` [Example 3230, 3-Chloro-N-[cis-4-(4-dimethylamino-6-methyl-pyrimidin-2-ylamino)-cyclohexyl]-4-fluoro-benzamide hydrochloride] belongs less than 0.05 µM.
Consider `CCN(CC(=O)N[C@H]1CC[C@@H](Nc2nccc(N(C)C)n2)CC1)c1ccccc1` [Example 3202, N-[cis-4-(4-Dimethylamino-pyrimidin-2-ylamino)-cyclohexyl]-C-(ethyl-phenyl-amino)-acetamide dihydrochloride], for which the IC50 (table after the classification) was less than 0.05 µM.
In the case of `Cc1cc(N[C@H]2CC[C@@H](NC(=O)c3cccc(O)c3)CC2)nc2ccccc12` [Example 3160, 3-Hydroxy-N-[cis-4-(4-methyl-quinolin-2-ylamino)-cyclohexyl]-benzamide hydrochloride], the IC50 (table after the classification) is less than 0.05 µM.
For `Cc1cnc(N[C@H]2CC[C@@H](NC(=O)NC(C)(C)c3ccc(Cl)cc3)CC2)nc1N(C)C` [Example 3264, N-[1-(4-chlorophenyl)-1-methylethyl]-N′-(cis-4-{[4-(dimethylamino)-5-methylpyrimidin-2-yl]amino}cyclohexyl)urea], the IC50 was less than 0.05 µM.
Turning to `Cc1cnc(N[C@H]2CC[C@@H](NC(=O)Cc3ccc(F)c(F)c3)CC2)nc1N(C)C` [Example 3391, 2-(3,4-Difluoro-phenyl)-N-[cis-4-(4-dimethylamino-5-methyl-pyrimidin-2-ylamino)-cyclohexyl]-acetamide hydrochloride], where the note is “table after the classification”, the IC50 was less than 0.05 µM.
Regarding `COc1cc(OC)nc(N[C@H]2CC[C@@H](NC(=O)c3cccnc3Oc3ccccc3)CC2)n1` [Example 3135, N-[cis-4-(4,6-Dimethoxy-pyrimidin-2-ylamino)-cyclohexyl]-2-phenoxy-nicotinamide hydrochloride], the IC50 (table after the classification) was more than 0.2 µM.
Same read-out and setting: to `Cc1cc(N[C@H]2CC[C@@H](NC(=O)c3cccnc3Oc3ccc(Br)cc3)CC2)nc2ccccc12` [Example 3094, 2-(4-Bromo-phenoxy)-N-[cis-4-(4-methyl-quinolin-2-ylamino)-cyclohexyl]-nicotinamide hydrochloride] belongs less than 0.05 µM.
As for `CCN(C(=O)N[C@H]1CC[C@@H](Nc2ncc(C)c(N(C)C)n2)CC1)c1ccccc1OC(F)(F)F` [Example 3349, N′-(cis-4-{[4-(dimethylamino)-5-methylpyrimidin-2-yl]amino}cyclohexyl)-N-ethyl-N-[2-(trifluoromethoxy)-phenyl]urea], the IC50 was in the range of 0.05 to 0.2 µM.
On to `Cc1cc(N(C)C)nc(N[C@H]2CC[C@@H](NC(=O)c3cc(F)c(F)c(F)c3)CC2)n1` [Example 3385, N-[cis-4-(4-Dimethylamino-6-methyl-pyrimidin-2-ylamino)-cyclohexyl]-3,4,5-trifluoro-benzamide hydrochloride], for which, where the note is “table after the classification”, the IC50 is less than 0.05 µM.

For the origin of these results see patent US20050197350A1, “Novel quinoline, tetrahydroquinazoline, and pyrimidine derivatives and methods of treatment related to the use thereof” (TAISHO PHARMACEUTICAL CO., LTD., priority 2003, published 2005).
